Values of other authors in patent publication US20240300988A1, “CRYSTALLINE FORMS OF PENTAAZA MACROCYCLIC RING COMPLEX” (Galera Labs, LLC, priority 2023, published 2024).

Tested on: VEGFr inhibitor-induced pulmonary disease
Settings: rat model; Tuder et al., Am. J. Respir. Cell Mol. Biol., 29, 88-97 (2003)

## [Cl][Mn][Cl].c1cc2nc(c1)CN[C@H]1CCCC[C@@H]1NCCN[C@H]1CCCC[C@@H]1NC2 [GC4419]
  effect on VEGFr inhibitor-induced pulmonary disease: attenuate VEGFr inhibitor-induced pulmonary disease
